Test results as given in ChEMBL document CHEMBL4177677, “Relevance of Half-Life in Drug Design” (J Med Chem, 2018).
One block for each compound: values may come before it.

Tests used:
[1] = Terminal half life in human at 0.1 mg/kg, iv; type: ADME, organism-based; settings: in vivo, read-out: beta t1/2 (converted)
[2] = Drug excretion in human kidney; settings: urine
[3] = Inhibition of human calcium channel
Homo sapiens [4] = species: Homo sapiens; assay: Unbound concentration in human at 5 to 10 mg, qd; type: ADME, organism-based; settings: in vivo
[5] = Half life in human; type: ADME, organism-based; settings: in vivo
[6] = Terminal half life in human; type: ADME, organism-based; settings: in vivo, read-out: beta t1/2
[7] = Half life in human at 10 mg, tid; settings: in vivo
Homo sapiens [8] = species: Homo sapiens; assay: Unbound concentration in human at 10 mg, tid; settings: in vivo

SMILES: NS(=O)(=O)N1CCN(C2CN(CC[C@]3(c4ccc(Cl)c(Cl)c4)CCC(=O)N(CC4CC4)C3)C2)CC1
half-life [1]: 28 h

SMILES: CCOC(=O)C1=C(COCCN)NC(C)=C(C(=O)OC)C1c1ccccc1Cl (stereo not given) [AMLODIPINE]
IC50 [3]: 2 nM | Drug uptake(free) (Homo sapiens [4]): 2 nM

SMILES: COC(=O)C1=C(C)NC(C)=C(C(=O)OC)C1c1ccccc1[N+](=O)[O-] [NIFEDIPINE]
IC50 [3]: 4 nM | half-life [7]: 2 h | Drug uptake(free) (Homo sapiens [8]): 6 nM

The next lines start with the values.

dose excreted [2]: 20 to 80%
SMILES: NCCCC(O)(P(=O)(O)O)P(=O)(O)O [ALENDRONIC ACID]

half-life [5]: 60 h
SMILES: COc1cc(F)c(C(C)C)cc1-c1ccc(C(F)(F)F)cc1CN1C(=O)O[C@H](c2cc(C(F)(F)F)cc(C(F)(F)F)c2)[C@@H]1C [ANACETRAPIB]

half-life [6]: 19 to 26 h
SMILES: CC(C(=O)O)c1ccc2oc(-c3ccc(Cl)cc3)nc2c1 (stereo not given) [BENOXAPROFEN]

half-life [5]: 3 h
SMILES: C[C@@H]1CCN(C(=O)CC#N)C[C@@H]1N(C)c1ncnc2[nH]ccc12 [TOFACITINIB]
